# Measured values taken from patent US9408853B2, “Iridium/rhodium anti-cancer compounds” (University of Warwick, priority 2010, dated 2016).
# Test system: not listed separately
# Experiment: Kinetics of hydrolysis followed by 1H NMR
# Assay type: physicochemical
# Conditions: 278 K; 0.2 mM, 5% MeOD-d4/95% D2O, pH* 3
# Procedure: Kinetics for Hydrolysis. Although complexes ZL01-ZL04, ZL07, ZL38 and ZL43 hydrolyzed too rapidly to monitor by ^1H NMR, The kinetics of hydrolysis for complexes ZL25, ZL33, ZL37 and ZL54 were followed by ^1H NMR at different temperatures. For this, solutions of the complexes with a final concentration of 0.2 mM in 5% MeOD-d4/95% D2O (v/v) were prepared by dissolution of the complexes in MeOD-d4 followed by rapid dilution using D2O with a pH* of about 3 (acidified with HClO4), so that the aqua ligand was not deprotonated. ^1H NMR spectra were taken after various time intervals. The rates of hydrolysis were determined by fitting plots of concentrations (determined from ^1H NMR peak integrals) versus time to a pseudo first-order equation using ORIGIN version 7.0. The Arrhenius activation energy (Ea), activation enthalpies (ΔH^¢), and activation entropy (ΔS^‡) for compounds ZL25, ZL33, ZL37 and ZL54 were determined from the slopes of the Arrhenius and intercepts of Eyring plots.
# The rates of hydrolysis of compounds ZL01-ZL04, ZL07, ZL25, ZL33, ZL37, ZL38, ZL43 and ZL54 in a 5% MeOD-d4/95% D2O were monitored by ^1H NMR at different temperature from 278 to 298 K by the observation of new peaks over time due to aqua adduct formation. Five percent MeOD was used to improve solubility, and acidic conditions (D2O, pH* 3) were used to prevent the deprotonation of the aqua complex as a secondary reaction. […] The percentage of aqua peak formation for ZL25, ZL33, ZL37 and ZL54 was plotted against time and was fitted to pseudofirst order kinetics (FIG. 3), and their halflife times were calculated (Table 1). The Arrhenius activation energy (Ea), activation enthalpy (ΔH^¢), and activation entropy (ΔS^‡) of compound ZL25, ZL33, ZL37 and ZL54 are listed in Table 4. The large negative ΔS^‡value for compound ZL54 is notable. The extent of hydrolysis at equilibrium is medium for all compounds, ranged from 30% to 60%.
row,SMILES,k (hydrolysis)
1,"Cc1c(C)c(-c2ccc(-c3ccccc3)cc2)[c-](C)c1C.F[P-](F)(F)(F)(F)F.[Cl-].[Ir+3].c1ccc(-c2ccccn2)nc1 (stereo not drawn) [ZL25, [(η^5-C5Me4C6H4C6H5)Ir(bipy)Cl]PF6]",0.0249 min⁻¹
2,"Cc1c(C)c(-c2ccccc2)[c-](C)c1C.F[P-](F)(F)(F)(F)F.[Cl-].[Ir+3].c1ccc(-c2ccccn2)nc1 (stereo not drawn) [ZL37, [(η^5-C5Me4C6H5)Ir(bipy)Cl]PF6]",0.0341 min⁻¹

# Same assay, conditions: 283 K; 0.2 mM, 5% MeOD-d4/95% D2O, pH* 3
row,SMILES,k (hydrolysis)
1,"Cc1c(C)c(-c2ccc(-c3ccccc3)cc2)[c-](C)c1C.F[P-](F)(F)(F)(F)F.[Cl-].[Ir+3].c1ccc(-c2ccccn2)nc1 (stereo not drawn) [ZL25, [(η^5-C5Me4C6H4C6H5)Ir(bipy)Cl]PF6]",0.0405 min⁻¹
2,"Cc1c(C)c(-c2ccccc2)[c-](C)c1C.F[P-](F)(F)(F)(F)F.[Cl-].[Ir+3].c1ccc(-c2ccccn2)nc1 (stereo not drawn) [ZL37, [(η^5-C5Me4C6H5)Ir(bipy)Cl]PF6]",0.0652 min⁻¹

# Same assay, conditions: 288 K; 0.2 mM, 5% MeOD-d4/95% D2O, pH* 3
row,SMILES,k (hydrolysis)
1,"Cc1c(C)c(-c2ccccc2)[c-](C)c1C.F[P-](F)(F)(F)(F)F.[Cl-].[Ir+3].c1ccc(-c2ccccn2)nc1 (stereo not drawn) [ZL37, [(η^5-C5Me4C6H5)Ir(bipy)Cl]PF6]",0.1229 min⁻¹

# Same assay, conditions: 293 K; 0.2 mM, 5% MeOD-d4/95% D2O, pH* 3
row,SMILES,k (hydrolysis)
1,"Cc1c(C)c(-c2ccc(-c3ccccc3)cc2)[c-](C)c1C.F[P-](F)(F)(F)(F)F.[Cl-].[Ir+3].c1ccc(-c2ccccn2)nc1 (stereo not drawn) [ZL25, [(η^5-C5Me4C6H4C6H5)Ir(bipy)Cl]PF6]",0.0986 min⁻¹

# Same assay, conditions: from Arrhenius plot
row,SMILES,Ea (Arrhenius activation energy of hydrolysis)
1,"Cc1c(C)c(-c2ccc(-c3ccccc3)cc2)[c-](C)c1C.F[P-](F)(F)(F)(F)F.[Cl-].[Ir+3].c1ccc(-c2ccccn2)nc1 (stereo not drawn) [ZL25, [(η^5-C5Me4C6H4C6H5)Ir(bipy)Cl]PF6]",14.4 kcal/mol
2,"Cc1c(C)c(-c2ccccc2)[c-](C)c1C.F[P-](F)(F)(F)(F)F.[Cl-].[Ir+3].c1ccc(-c2ccccn2)nc1 (stereo not drawn) [ZL37, [(η^5-C5Me4C6H5)Ir(bipy)Cl]PF6]",19.7 kcal/mol

# Same assay, conditions: from Eyring plot
SMILES,ΔH^‡ (activation enthalpy of hydrolysis),ΔS^‡ (activation entropy of hydrolysis)
"Cc1c(C)c(-c2ccc(-c3ccccc3)cc2)[c-](C)c1C.F[P-](F)(F)(F)(F)F.[Cl-].[Ir+3].c1ccc(-c2ccccn2)nc1 (stereo not drawn) [ZL25, [(η^5-C5Me4C6H4C6H5)Ir(bipy)Cl]PF6]",13.9 kcal/mol,−66.02 J K^−1mol^−1
"Cc1c(C)c(-c2ccccc2)[c-](C)c1C.F[P-](F)(F)(F)(F)F.[Cl-].[Ir+3].c1ccc(-c2ccccn2)nc1 (stereo not drawn) [ZL37, [(η^5-C5Me4C6H5)Ir(bipy)Cl]PF6]",19.1 kcal/mol,14.7 J K^−1mol^−1

# Test system: 9-ethylguanine (9-EtG)
# Experiment: Interactions with nucleobases: 9-EtG adduct formation (1H NMR)
# Assay type: binding
# Conditions: 10 min; 1 mM, 1 mol equiv 9-EtG (ZL33A: 2 mol equiv), D2O, 310 K
# Procedure: (§1) Interactions with Nucleobases. The reaction of ZL01, ZL03, ZL04, ZL07, ZL25, ZL33, ZL37, ZL38, ZL43 and ZL54 and ZL33A with nucleobases typically involved addition of a solution containing 1-2 mol equiv of nucleobase in D2O, to an equilibrium solution of ZL01, ZL03, ZL04, ZL07, ZL25, ZL33, ZL37, ZL38, ZL43, ZL54 and ZL33A in a solution of 5% MeOD-d4/95% D2O (v/v). ^1H NMR spectra of these solutions were recorded at 310 K after various time intervals.
# (§2) Since DNA is a potential target site for transition metal anticancer complexes,^18 nucleobase binding reactions of compounds ZL01, ZL03, ZL04, ZL07, ZL25, ZL33, ZL33A, ZL37, ZL38, ZL43 and ZL54 with nucleobase models 9-ethylguanine (9-EtG) and 9-ethyladenine (9-EtA), were investigated. Solutions of ZL01, ZL03, ZL04, ZL07, ZL25, ZL33, ZL37, ZL38, ZL43 and ZL54 (1 mM) (containing an equilibrium mixture of these complexes and their respective aqua adducts) with 1 mol equivalent of 9-EtG or 9-EtA in D2O were prepared, and ^1H NMR spectra were recorded at different time intervals.
# Interactions with Nucleobases. Since DNA is a potential target site for transition metal anticancer complexes,^23 the binding of 9-ethylguanine (9-EtG) to complexes ZL47, ZL49, ZL69, ZL74 and ZL107 was studied.
row,SMILES,"Reaction with 9-EtG, extent of adduct formation"
1,"Cc1c(C)c(-c2ccc(-c3ccccc3)cc2)[c-](C)c1C.F[P-](F)(F)(F)(F)F.[Cl-].[Ir+3].c1ccc(-c2ccccn2)nc1 (stereo not drawn) [ZL25, [(η^5-C5Me4C6H4C6H5)Ir(bipy)Cl]PF6]",24.2%
2,"Cc1c(C)c(-c2ccccc2)[c-](C)c1C.F[P-](F)(F)(F)(F)F.[Cl-].[Ir+3].c1ccc(-c2ccccn2)nc1 (stereo not drawn) [ZL37, [(η^5-C5Me4C6H5)Ir(bipy)Cl]PF6]",18.6%

# Test system: 9-ethyladenine (9-EtA)
# Experiment: Interactions with nucleobases: 9-EtA adduct formation (1H NMR)
# Assay type: binding
# Conditions: 10 min; 1 mM, 1 mol equiv 9-EtA, D2O, 310 K
# Procedure: as §1, §2
row,SMILES,"Reaction with 9-EtA, extent of adduct formation"
1,"Cc1c(C)c(-c2ccc(-c3ccccc3)cc2)[c-](C)c1C.F[P-](F)(F)(F)(F)F.[Cl-].[Ir+3].c1ccc(-c2ccccn2)nc1 (stereo not drawn) [ZL25, [(η^5-C5Me4C6H4C6H5)Ir(bipy)Cl]PF6]",0%
2,"Cc1c(C)c(-c2ccccc2)[c-](C)c1C.F[P-](F)(F)(F)(F)F.[Cl-].[Ir+3].c1ccc(-c2ccccn2)nc1 (stereo not drawn) [ZL37, [(η^5-C5Me4C6H5)Ir(bipy)Cl]PF6]",0%

# Same assay, conditions: 24 h; 1 mM, 1 mol equiv 9-EtA, D2O, 310 K
row,SMILES,"Reaction with 9-EtA, extent of adduct formation"
1,"Cc1c(C)c(-c2ccc(-c3ccccc3)cc2)[c-](C)c1C.F[P-](F)(F)(F)(F)F.[Cl-].[Ir+3].c1ccc(-c2ccccn2)nc1 (stereo not drawn) [ZL25, [(η^5-C5Me4C6H4C6H5)Ir(bipy)Cl]PF6]",0%
2,"Cc1c(C)c(-c2ccccc2)[c-](C)c1C.F[P-](F)(F)(F)(F)F.[Cl-].[Ir+3].c1ccc(-c2ccccn2)nc1 (stereo not drawn) [ZL37, [(η^5-C5Me4C6H5)Ir(bipy)Cl]PF6]",0%

# Test system: human ovarian A2780 cancer cells
# Experiment: Cancer cell cytotoxicity, SRB assay
# Assay type: cell-based
# Conditions: 24 h exposure, 72 h recovery, SRB; read-out: A2780 IC50
# Procedure: Cancer Cell Cytotoxicity. After plating, human ovarian A2780 cancer cells were treated with Ir^III complexes on day 3 at concentrations ranging from 0.5 μM to 100 μM. Solutions of the Ir^III complexes were made up in 0.125% DMSO to assist dissolution. Stock solutions of the IrIII complexes were firstly prepared in DMSO to assist dissolution, and then diluted into 0.9% saline and medium. After plating 5000 A2780 cells per well on day 1, IrIII complexes were added to the cancer cells on day 3 at concentrations ranging from 0.05 μM to 100 μM. Cells were exposed to the complexes for 24 h, washed, supplied with fresh medium, allowed to grow for three doubling times (72 h), and then the protein content measured (proportional to cell survival) using the sulforhodamine B (SRB) assay.^15 […]. The standard errors are based on two independent experiments of three replicates each.
row,SMILES,IC50
1,"Cc1c(C)c(-c2ccc(-c3ccccc3)cc2)[c-](C)c1C.F[P-](F)(F)(F)(F)F.[Cl-].[Ir+3].c1ccc(-c2ccccn2)nc1 (stereo not drawn) [ZL25, [(η^5-C5Me4C6H4C6H5)Ir(bipy)Cl]PF6]",0.57 µM
2,"Cc1c(C)c(-c2ccccc2)[c-](C)c1C.F[P-](F)(F)(F)(F)F.[Cl-].[Ir+3].c1ccc(-c2ccccn2)nc1 (stereo not drawn) [ZL37, [(η^5-C5Me4C6H5)Ir(bipy)Cl]PF6]",15.9 µM

# Test system: ca. 60 cell lines within nine tumour type subpanels
# Experiment: not given
# Assay type: cell-based
# Conditions: not given
# Text: Six complexes, [(η^5-C5Me4C6H4C6H5)Ir(bpy)Cl]PF6 (ZL25, bpy=2,2′-bipyridine), [(η^5-C5Me4C6H5)Ir(phen)Cl]PF6 (ZL33, phen=1,10-phenanthroline), [(η^5-C5Me4C6H4C6H5) Ir(pico)Cl] (ZL43, pico=picolinate), [(η^5-C5Me5)Ir(2-phpy)Cl] (ZL47), [(η^5-C5Me4C6H4C6H5)Ir(2-phPY)(D2O)Cl] (ZL49) and [(η^5-C5Me4C6H4C6H5) Ir(phen)Cl]PF6 (ZL54), were selected by Developmental Therapeutics Program of National Cancer Institute (NCI, U.S.A.) for in vitro screening test, in which 5 complexes except ZL43 are selected for further testing. The five complexes were tested on ca. 60 cell lines within nine tumour type subpanels at five concentrations ranging from 0.01 to 100 μM.
row,SMILES,CC50
1,"Cc1c(C)c(-c2ccc(-c3ccccc3)cc2)[c-](C)c1C.F[P-](F)(F)(F)(F)F.[Cl-].[Ir+3].c1ccc(-c2ccccn2)nc1 (stereo not drawn) [ZL25, [(η^5-C5Me4C6H4C6H5)Ir(bipy)Cl]PF6]",67.6 µM

# Same assay, conditions: ca. 60 cell lines, 0.01 to 100 μM
row,SMILES,Mean graph midpoint (MID) TGI
1,"Cc1c(C)c(-c2ccc(-c3ccccc3)cc2)[c-](C)c1C.F[P-](F)(F)(F)(F)F.[Cl-].[Ir+3].c1ccc(-c2ccccn2)nc1 (stereo not drawn) [ZL25, [(η^5-C5Me4C6H4C6H5)Ir(bipy)Cl]PF6]",19.1 µM

# Same assay, conditions: ca. 60 cell lines, 0.01 to 100 μM; read-out: Mean graph midpoint (MID) GI50
row,SMILES,GI50
1,"Cc1c(C)c(-c2ccc(-c3ccccc3)cc2)[c-](C)c1C.F[P-](F)(F)(F)(F)F.[Cl-].[Ir+3].c1ccc(-c2ccccn2)nc1 (stereo not drawn) [ZL25, [(η^5-C5Me4C6H4C6H5)Ir(bipy)Cl]PF6]",4.1 µM

# Same assay, conditions: mean graphs
row,SMILES,selectivity among tumour type subpanels (in words)
1,"Cc1c(C)c(-c2ccc(-c3ccccc3)cc2)[c-](C)c1C.F[P-](F)(F)(F)(F)F.[Cl-].[Ir+3].c1ccc(-c2ccccn2)nc1 (stereo not drawn) [ZL25, [(η^5-C5Me4C6H4C6H5)Ir(bipy)Cl]PF6]","selectivity with higher activity not only towards leukemia, CNS cancer, melanoma, and prostate cancer, but also against colon cancer and breast cancer"
